Tested on: beef feedlot cattle
Experiment: 56-d study: growth performance
Type: in vivo
Parameters: Average daily dry matter (DMI) / Average daily dry matter (DMI), difference from control: unit not given here
Details: for Average daily dry matter (DMI) / Average daily gain (ADG) / Gain:feed, ADG:DMI / Final BW: 56 d treatment, steers, LS mean; for Final BW: initial weight as covariate
Method: This example describes a randomized complete block study that evaluated LUB dose (0, 1.5, 3.5, and 5.5 mg kg^−1 dry matter) during the last 56 d of the feeding period on live weight, carcass weight, and associated ratios in beef feedlot cattle. Carcass characteristics, mobility, and health were also evaluated. All cattle received monensin and tylosin throughout the study.
A randomized complete block design was used to evaluate the effects of LUB on calculated growth performance of 2,880 British and Continental European crossbred steers typical for U.S. feedlots. Bos indicus breeding was limited to less than ⅛. The study evaluated four
LUB doses: 0 (control, CON), 1.5, 3.5, and 5.5 mg·kg^−1 DM. There were 12 blocks, each block containing four replicate pens that started LUB feeding on the same date. Steers were randomized within each block of four pens with 60 steers per pen, resulting in a total of 720 steers enrolled in each treatment. LUB feeding started on Jun. 24, 2018, Jul. 1, 2018, and Jul. 15, 2018, four blocks on each date.
Beginning no later than approximately d −70, animals were fed a diet containing Rumensin (monensin 46.3 mg·kg^−1 100% DM basis; Elanco, Greenfield, IN, USA) and Tylan (tylosin 8.9 mg·kg^−1 100% DM basis; Elanco) ad libitum. Cattle in the LUB treatments were switched from the basal finishing ration to the finishing ration containing the appropriate concentrations of LUB Type A premix at the start of the treatment period (d −57). Table 5 lists the composition and the formulated nutrient composition of the finishing diet. The diet was designed to meet or exceed the minimum nutrient requirements cited in Nutrient Requirements of Beef Cattle (NASEM, 2016). LUB was delivered to the cattle using a 1% LUB Type A premix prepared and delivered by Elanco (Clinton Laboratories, Clinton, IN, USA), and the ration was prepared on-site at the research facility. The 1% Type A premix was delivered into the ration by flushing the 1% Type A premix through a micro-ingredient machine (Micro Technologies, Amarillo, TX) with water, which was included at approximately 27 kg of the “as-fed” ration, for each 3,629 kg batch. The 1% Type A premix was included in the finishing ration at 0, 0.0154%, 0.0353%, or 0.0551% (100% DM) to provide CON, 1.5, 3.5, or 5.5 mg·kg^−1 LUB (100% DM). The on-site feed mixers used to mix (stationary horizontal paddle mixer [Cactus Varied Industries, Amarillo, TX, USA]) and deliver (Roto-Mix 490-14 and Roto-Mix 620-16, Roto-Mix LLC, Dodge City, KS) the Type C feed were qualified to confirm that the ration could be mixed homogeneously before feeding medicated feed. Cattle were fed in order of CON, 1.5, 3.5, or 5.5 mg·kg^−1 doses of LUB. Prior to mixing the CON batches, the mixer was flushed with appropriate amount of non-medicated feed or other cattle feed to assure no carryover of test compound. Feed was issued three times each day at approximately the same time each day. Bunk calls were made at the time of first feeding and amount of feed issued for the third feeding was adjusted based on daily bunk calls according to site procedures. The feeding goal was to have slick bunks prior to the first feeding and approximately ⅓ of the cattle at the bunk, ⅓ of the cattle moving to the bunk, and ⅓ of the cattle not moving to the bunk at time of first feeding. Water was available ad libitum throughout the study. The weight of feed issued was recorded and electronic feed records were provided for data analysis.
Animals were weighed individually at the time of randomization (approximately d −69 to d −66) and this weight was used to exclude steers with extreme BW from the trial. All other BW (unshrunk) were collected by pen and used for calculation of growth performance. Scheduled pen weights were taken prior to feed delivery and collected on d −59 (2 d before treatment start, which was considered the treatment start weight) and d 0 (1 d after the end of treatment, which was considered the treatment end weight). […]

[1] = steers fed LUB (doses pooled), 56 d

## CC(C)(Cc1ccc(Oc2ncccc2C#N)cc1)NC[C@H](O)COc1ccccc1-c1cccs1 [LUB, 2-{4-[2-({(2S)-2-Hydroxy-3-[2-(2-thienyl)phenoxy]propyl}amino)-2-methylpropyl]phenoxy}nicotinonitrile]
1.5 mg·kg^−1 vs. control, 56 d
  Average daily dry matter (DMI), difference from control: 0.2
  Average daily dry matter (DMI), percent change from Control: 2.0%
  Average daily gain (ADG), difference from control: 0.19 kg
  Average daily gain (ADG), percent change from Control: 11.3%
  Final BW, difference from control: 11.6 kg
  Final BW, percent change from Control: 1.7%
  Gain:feed, ADG:DMI, difference from control: 0.015
  Gain:feed, ADG:DMI, percent change from Control: 9.0%
3.5 mg·kg^−1 vs. control, 56 d
  Average daily dry matter (DMI), difference from control: 0.3
  Average daily dry matter (DMI), percent change from Control: 3.0%
  Average daily gain (ADG), difference from control: 0.26 kg
  Average daily gain (ADG), percent change from Control: 15.5%
  Final BW, difference from control: 15.7 kg
  Final BW, percent change from Control: 2.4%
  Gain:feed, ADG:DMI, difference from control: 0.028
  Gain:feed, ADG:DMI, percent change from Control: 12.0%
5.5 mg·kg^−1 vs. control, 56 d
  Average daily dry matter (DMI), difference from control: 0.2
  Average daily dry matter (DMI), percent change from Control: 2.0%
  Average daily gain (ADG), difference from control: 0.24 kg
  Average daily gain (ADG), percent change from Control: 14.3%
  Final BW, difference from control: 14.3 kg
  Final BW, percent change from Control: 2.1%
  Gain:feed, ADG:DMI, difference from control: 0.019
  Gain:feed, ADG:DMI, percent change from Control: 11.4%
LUB 1.5 mg·kg^−1 DM
  Average daily dry matter (DMI): 10.3
  Average daily gain (ADG): 1.87 kg
  Gain:feed, ADG:DMI: 0.182
  Final BW: 679.0 kg
LUB 3.5 mg·kg^−1 DM
  Average daily dry matter (DMI): 10.4
  Average daily gain (ADG): 1.94 kg
  Gain:feed, ADG:DMI: 0.187
  Final BW: 683.1 kg
LUB 5.5 mg·kg^−1 DM
  Average daily dry matter (DMI): 10.3
  Average daily gain (ADG): 1.92 kg
  Gain:feed, ADG:DMI: 0.186
  Final BW: 681.7 kg
[1]
  Average daily gain: 1.91 kg
  Average daily gain greater than control: 13.7%
  Gain efficiency: 0.185
  Gain efficiency greater than control: 10.8%
Steers that received LUB (doses pooled), 56 d
  Daily dry matter intake greater than control: 2.3%

Source: patent US20260048046A1, “METHOD FOR IMPROVING GROWTH PERFORMANCE IN FEEDLOT CATTLE” (Elanco US Inc., priority 2022, published 2026)
